# Test results published in PMC6554663, “Pharmaceutical Effects of Inhibiting the Soluble Epoxide Hydrolase in Canine Osteoarthritis” (Frontiers in Pharmacology, 2019).
# “And” between values parts separate entries of the source, which are not always exact repeats. Equal values may be shown once. Read-outs that look alike come from different tables or passages of the source.
# Columns and labels:
# [1] = Microsomal stability; assay type: in vitro ADME, dog; settings: 60 min, 37°C
# Description: Male and female dog liver microsomes (Xenotech) were diluted in potassium phosphate buffer (0.1M, pH 7.4), MgCl2 (3.15 mM), and sodium EDTA (1.05 mM) to a final protein concentration of 1 mg/mL. Compounds were added at 0.1 mM in methanol at 1% and microsomes were activated with 5% (v/v) NADPH regenerating system (100 μL sodium phosphate buffer (0.1M, pH 7.4), 50 μL, glucose-6-phosphate in sodium phosphate buffer (0.1M, pH 7.4), 50 μL NADP+ in sodium phosphate (0.1M, pH 7.4), and 50 μL of 100 Units/mL of […]). […] Compounds were incubated without microsomes or NADPH as negative controls.
# [2] = Solubility of sEHI; assay type: physicochemical
# Description: […] The non-dissolved compounds were filtered through a 0.22 μm centrifuge filter at 40°C and the supernatant was further diluted 10 times with methanol. The samples were analyzed by LC/MS-MS.
# [3] = Blood and synovial fluid concentrations in treated osteoarthritic dogs; assay type: in vivo, dog; settings: for Blood concentration D5 / Synovial fluid concentration D1 / Synovial fluid concentration D5: po, qd x 5, detected EC3039, individual dogs;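 for Synovial fluid concentration D1: synovial fluid also sampled on Day 1 after the pain assessment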
# Description: (§1) Eight satellite dogs (2 per each group) had whole blood collected for PK analysis on study Days […]. On Day 1, blood was collected immediately prior to dosing, and again at 0.25, 0.5, 1, 2, 4, 6, and 8 (±5 min) after dosing. On Day 2 through 4, blood was collected 0.5 h (±5 min) after dosing. On Day 5 blood was collected immediately prior to dosing, and again at 0.25, 0.5, 1, 2, 4, 6, 8 (±5 min), 24, 48, and 72 h (±30 min) post treatment. […] For all blood samples, a minimum of 3 mL of whole blood was collected from a suitable vein as per written and approved standard operating procedures. The blood was transferred to K2EDTA (spray dried) blood tube and inverted gently multiple times to ensure proper mixing of the blood and anticoagulant. On study Day 5, synovial fluid was collected by arthrocentesis immediately after the subject completed the questionnaire (approximately […] after dosing). Subjects were anesthetized as per written and approved Standard Operating Procedures. A minimum of 0.1 mL of synovial fluid was collected from each subject. Samples were frozen in an upright position and stored at -80°C ± 4°C before being shipped to UC Davis for analysis.
# Pain and function were assessed by a questionnaire answered by blinded technicians based on observation of study animals housed at InterVivo. The survey was adapted from the canine brief pain inventory (CBPI), which was developed based on clinical questionnaires in which owners score the function and pain level of their pets with existing pain conditions ([Brown et al., 2007]). Modifications to the questionnaire attempted to account for differences between owner pain evaluation of pets and pain evaluation of laboratory dogs by technical staff. For survey administration, blinded technicians attempted to elicit objective behavior-specific measures of function and pain level across a variety of normal canine behaviors (e.g., walking, trotting, galloping, rearing, and stair-climbing, etc.). For this, one technician was responsible for soliciting the relevant behaviors from a dog using encouragement and/or food rewards, while the evaluating technician scored function and observable pain using the modified CBPI questionnaire. Subjects were tested daily on Days -7 through -3, to develop baseline scores, and again on Days 1 through 5 administered 1.5 h after dosing. Dosing occurred in the morning, and observations were recorded 1.5 h after dosing, to limit time-of-day variability. Questions are listed in Supplementary Table S3. Animals in treatment groups had blood and synovial fluid collected ∼2 h after the last dose on day 5 (immediately following the study questionnaire) to confirm plasma concentrations in treated animals. Full pharmacokinetic assessments were collected from a satellite group of animals so as not to interfere with pain assessment.
# [4] = PK analysis in satellite dogs; assay type: in vivo, dog; settings: for half-life / AUC(0-t) / Cmax: whole blood; for AUC(0-t) / Cmax: po
# Description: as §1
# For PK analysis in the satellite group, individual parameters were calculated by fitting blood concentrations to a non-compartmental analysis using Kinetica software (Thermo Fisher Scientific version 5.1). Using the log-linear trapezoidal method, the area under the curve were calculated and were extrapolated to infinity using the last measured plasma concentration (Clast), defined as the timepoint collected 72 h after the last dose or 8 hr after the first dose on day 1, divided by the terminal slope (λz).
# [5] = female, beagle, dog, 1 mg/kg, dosed EC3039 1 mg/kg oral qd, female dog, Day 1, detected EC3039, blood
# [6] = female, beagle, dog, 1 mg/kg, dosed EC3039 1 mg/kg oral qd, female dog, Day 5, detected EC3039, blood
# [7] = female, beagle, dog, 5 mg/kg, dosed EC3039 5 mg/kg oral qd, female dog, Day 1, detected EC3039, blood
# [8] = female, beagle, dog, 5 mg/kg, dosed EC3039 5 mg/kg oral qd, female dog, Day 5, detected EC3039, blood
# [9] = male, beagle, dog, 1 mg/kg, dosed EC3039 1 mg/kg oral qd, male dog, Day 1, detected EC3039, blood
# [10] = male, beagle, dog, 1 mg/kg, dosed EC3039 1 mg/kg oral qd, male dog, Day 5, detected EC3039, blood
# [11] = male, beagle, dog, 5 mg/kg, dosed EC3039 5 mg/kg oral qd, male dog, Day 1, detected EC3039, blood
smiles,measurement,setting,value
"CN(C(=O)N[C@H]1CC[C@H](Oc2ccc(C(=O)O)cc2)CC1)c1ccc(OC(F)(F)F)cc1 [EC3039, trans-4-{4-[3-methyl-3-(4-trifluoromethoxy-phenyl)-ureido]-cyclohexyloxy}-benzoic acid]",melting point,,92.4 to 94.7 °C
same,% Parent + NADPH,[1]; female dog liver microsomes,85% and 85 ± 2%
same,% Parent − NADPH,[1]; female dog liver microsomes,93 ± 5%
same,% Parent − NADPH,[1]; male dog liver microsomes,97 ± 4%
same,solubility,"[2]; PEG300, organic solvent or mixture",99 ± 1 mg/mL
same,solubility at 24 h,"[2]; aqueous buffer, thermodynamic from solid, PBS pH 7.4, 40°C, 24 h",0.13 ± 0.015 mg/mL
same,Blood concentration D5,"[3]; dosed EC3039 1 mg/kg, 1 mg/kg",126 ng/mL and 176 ng/mL and 5340 ng/mL and 347 ng/mL and 346 ng/mL and 81 ng/mL and 408 ng/mL and 328 ng/mL
same,Synovial fluid concentration D1,"[3]; dosed EC3039 1 mg/kg, 1 mg/kg",1220 ng/mL and 2710 ng/mL and 4100 ng/mL and 3350 ng/mL and 3100 ng/mL and 1390 ng/mL and 3430 ng/mL and 2100 ng/mL
same,Synovial fluid concentration D5,"[3]; dosed EC3039 1 mg/kg, 1 mg/kg",1630 ng/mL and 1480 ng/mL and 11900 ng/mL and 1840 ng/mL and 1440 ng/mL and 586 ng/mL and 2190 ng/mL and 1930 ng/mL
same,Blood concentration D5,"[3]; dosed EC3039 5 mg/kg, 5 mg/kg",859 ng/mL and 672 ng/mL and 5550 ng/mL and 6250 ng/mL and 722 ng/mL and 6190 ng/mL and 5650 ng/mL and 929 ng/mL
same,Synovial fluid concentration D1,"[3]; dosed EC3039 5 mg/kg, 5 mg/kg",5850 ng/mL and 13570 ng/mL and 14290 ng/mL and 14240 ng/mL and 5220 ng/mL and 14300 ng/mL and 14700 ng/mL and 9520 ng/mL
same,Synovial fluid concentration D5,"[3]; dosed EC3039 5 mg/kg, 5 mg/kg",5830 ng/mL and 4640 ng/mL and 9960 ng/mL and 12400 ng/mL and 16100 ng/mL and 11700 ng/mL and 5960 ng/mL
same,sEHI in blood and synovial fluid relative to dogs treated with EC1728,[3]; high dose group (5 mg/kg),~10 ×
same,sEHI in blood and synovial fluid relative to dogs treated with EC1728,[3]; low dose group (1 mg/kg),approximately 2 ×
same,EC3039 in blood of dogs administered EC1728,[4]; EC1728 at 1 mg/kg or 5 mg/kg,no detectable amounts
same,blood concentrations relative to IC50 for sEH,"[4]; all treatment groups, duration of the study",exceeded the IC50
same,fold increase in AUC after fivefold increase in dose,"[4]; beagle, dog, in vivo",~18 fold
same,fold increase in Cmax after fivefold increase in dose,"[4]; beagle, dog, in vivo",30 to 40 fold
same,half-life,"[4]; beagle, dog, oral, satellite dogs, range over both compounds, Table 3, read-out: half-life",24 to 40 h
same,half-life,"[4]; beagle, dosed EC3039 1 mg/kg oral qd, female dog, Day 5, detected EC3039, blood, read-out: T1/2 (converted)",40 h
same,half-life,"[4]; beagle, dosed EC3039 1 mg/kg oral qd, male dog, Day 5, detected EC3039, blood, read-out: T1/2 (converted)",33 h
same,half-life,"[4]; beagle, dosed EC3039 5 mg/kg oral qd, female dog, Day 5, detected EC3039, blood, read-out: T1/2 (converted)",25 h
same,half-life,"[4]; beagle, dosed EC3039 5 mg/kg oral qd, male dog, Day 5, detected EC3039, blood, read-out: T1/2 (converted)",27 h
same,portion metabolized by demethylation to form EC1728,[4]; dogs dosed EC3039,< 10%
same,AUC(0-t),[4]; [5],3940 ng·h/mL
same,Cmax,[4]; [5],568 ng/mL
same,AUC(0-t),[4]; [6],361000 ng·h/mL
same,Cmax,[4]; [6],17300 ng/mL
same,AUC(0-t),[4]; [7],67200 ng·h/mL
same,Cmax,[4]; [7],18000 ng/mL
same,AUC(0-t),[4]; [8],589000 ng·h/mL
same,Cmax,[4]; [8],30900 ng/mL
same,AUC(0-t),[4]; [9],2490 ng·h/mL
same,Cmax,[4]; [9],400 ng/mL
same,AUC(0-t),[4]; [10],72100 ng·h/mL
same,Cmax,[4]; [10],2300 ng/mL
same,AUC(0-t),[4]; [11],46500 ng·h/mL
same,Cmax,[4]; [11],16900 ng/mL
same,Cmax,"[4]; male, beagle, dog, 5 mg/kg, dosed EC3039 5 mg/kg oral qd, male dog, Day 5, detected EC3039, blood",32100 ng/mL
